Reference: patent publication EP4635969A1, “NOVEL GLUCOCORTICOID, METHOD FOR PREPARING SAME, AND USE THEREOF” (Tianjin Pharmaceutical Biotechnology Co., Ltd., priority 2022, dated 2024)
Read-outs that look alike come from different tables or passages of the source.

Legend:
[1] = target: T1, glucocorticoid receptor (GR) (Homo sapiens, UniProt P04150); assay: Assay for agonist activity on glucocorticoid receptor (luciferase reporter, HEK293 cells transfected with pBIND-GR plasmid); type: cell-based
T1 sequence (P04150 521-777): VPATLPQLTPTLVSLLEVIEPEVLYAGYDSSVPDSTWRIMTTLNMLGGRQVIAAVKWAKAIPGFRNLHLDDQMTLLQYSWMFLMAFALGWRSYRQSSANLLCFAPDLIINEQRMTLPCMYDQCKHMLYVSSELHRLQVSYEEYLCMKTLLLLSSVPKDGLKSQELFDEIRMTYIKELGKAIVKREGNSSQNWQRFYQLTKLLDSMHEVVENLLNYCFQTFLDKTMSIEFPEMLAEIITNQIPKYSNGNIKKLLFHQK
Procedure, shortened: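 HEK293 cells transfected with pBIND-GR, seeded in phenol red-free DMEM with 5% charcoal-stripped serum, then exposed to compounds in a 10-point, 4-fold dilution series from 10 µM, in duplicate. Luciferase luminescence read after incubation; EC50 from nonlinear fit. Vehicle blank: 0.1% DMSO.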

[2] = tested on: inflammatory cytokines (TNF-α); assay: Anti-uveitis pharmacodynamic experiment (LPS model): inflammatory cytokines in aqueous humor (ELISA); type: in vivo, male SD rats; settings: values not given
Experimental: Pharmacological Example 5. Pharmacodynamic Experiment on Anti-Uveitis
Test samples: Compounds 23 and 26 were prepared as 5 mg/5 mL ophthalmic suspensions with reference to the formulation of Fluorometholone Eye Drops, and stored at room temperature protected from light until use.
Positive control drug: Fluorometholone Eye Drops (specification: 5 mL/5 mg; Santen Pharmaceutical (CHINA) Co., Ltd.; Lot No. : J20180068) was used as the positive control drug and stored at room temperature protected from light until use.
Fifty male SD rats underwent a one-week adaptive feeding period. The animals were randomly divided into 5 groups: Group 1 served as the blank control group, and Groups 2 to 5 were the model group, fluorometholone group, compound 23 group, and compound 26 group, respectively. Groups 2 to 5 were used to establish rat uveitis models by single subcutaneous injection of 1 mg/kg LPS (Salmonella; Sigma; Lot No. 0000164114) into the plantar tissue of the hindpaw. Salmonella endotoxin was dissolved in normal saline to prepare an injection solution at a concentration of 2 mg/mL, which was injected subcutaneously at 1 mg/kg into the plantar tissue of one paw of the rats. Group 1 was injected with an equal volume of normal saline.
After modeling, 40 µL of normal saline was administered to the eyes (bilateral) of the rats in the blank control group and model group, and 40 µL of the corresponding drugs were administered to the eyes (bilateral) of the […] in the compound 23 group, compound 26 group, and positive drug fluorometholone group, 3 times a day for 2 days. Table 8. Animal grouping and drug administration dosages
Thirty hours after modeling, aqueous humor was collected from both eyes of rats, and partial eyeball tissues of rats were collected. The level of the inflammatory cytokines (TNF-α) was detected using a rat ELISA assay kit.
Statistical analysis was performed using SPSS software. Measurement data were expressed as mean ± standard deviation. One-way ANOVA was used for intergroup comparisons. For data with homogeneous variance, LSD test was used; for data with heterogeneous variance, Dunnett-t test was used. A value of P < 0.05 was considered statistically significant.

[3] = GR agonist EC50 (nM), HEK293 cells transfected with pBIND-GR, luciferase signal
[4] = Nuclear receptor enzyme activity (nM) GR, EC50 of agonist activity, HEK293 reporter cells
[5] = HEK293 cells transfected with pBIND-GR, luciferase signal, read-out: GR agonist EC50

SMILES	EC50 [1, 3] [nM]	inflammatory cytokines in aqueous humor [2]	EC50 [1, 4] [nM]	EC50 ([1]; EC50 of agonist activity, HEK293 reporter cells, read-out: Nuclear receptor enzyme activity (nM) GR) [nM]	EC50 [1, 5] [nM]
C[C@]12C=CC(=O)C=C1CC[C@H]1[C@@H]3C[C@H]4OC(c5ccc(CNC6COC(=O)C6)cc5)O[C@@]4(C(=O)CO)[C@@]3(C)C[C@H](O)[C@@]12F (stereo partly drawn) [Compound 21, (6aS,6bR,7S,8aS,8bS,11aR,12aS,12bS)-6b-Fluoro-7-hydroxy-8b-(2-hydroxyacetyl)-6a,8a-dimethyl-10-(4-(((5-oxotetrahydrofuran-3-yl)amino)methyl)phenyl)-1,2,6a,6b,7,8,8a,8b,11a,12,12a,12b-dodecahydro-4H-naphtho[2',1':4,5]indeno[1,2-d][1,3]dioxol-4-one]	0.63	suppressed inflammatory cytokines in aqueous humor	–	–	–
C[C@]12C=CC(=O)C=C1CC[C@H]1[C@@H]3C[C@H]4OC(c5ccc(COC6CCOC6=O)cc5)O[C@@]4(C(=O)CO)[C@@]3(C)C[C@H](O)[C@@]12F (stereo partly drawn) [Compound 16, (6aS,6bR,7S,8aS,8bS,11aR,12aS,12bS)-6b-Fluoro-7-hydroxy-8b-(2-hydroxyacetyl)-6a,8a-dimethyl-10-(4-(((2-oxotetrahydrofuran-3-yl)oxy)methyl)phenyl)-1,2,6a,6b,7,8,8a,8b,11a,12,12a,12b-do decahydro-4H-naphtho[2',1':4,5]indeno[1,2-d][1,3]dioxol-4-one]	0.43	suppressed inflammatory cytokines in aqueous humor	0.43	–	–
C[C@]12C=CC(=O)C=C1CC[C@H]1[C@@H]3C[C@H]4OC(c5ccc(CSC6CCOC6=O)nc5)O[C@@]4(C(=O)CO)[C@@]3(C)C[C@H](O)[C@@]12F (stereo partly drawn) [Compound 47, (6aS,6bR,7S,8aS,8bS,11aR,12aS,12bS)-6b-Fluoro-7-hydroxy-8b-(2-hydroxyacetyl)-6a,8a-dimethyl-10-(6-(((2-oxotetrahydrofuran-3-yl)thio)methyl)pyridin-3-yl)-1,2,6a,6b,7,8,8a,8b,11a,12,12a,12 b-dodecahydro-4H-naphtho[2',1':4,5]indeno[1,2-d][1,3]dioxol-4-one]	0.34	suppressed inflammatory cytokines in aqueous humor	0.34	–	–
C[C@]12C=CC(=O)C=C1[C@@H](F)C[C@H]1[C@@H]3C[C@H]4OC(c5ccc(CSC6CCOC6=O)cc5)O[C@@]4(C(=O)OCC#N)[C@@]3(C)C[C@H](O)[C@@]12F (stereo partly drawn) [Compound 37, Cyanomethyl (2S,6aS,6bR,7S,8aS,8bS,11aR,12aS,12bS)-2,6b-difluoro-7-hydroxy-6a,8a-dimethyl-4-oxo-10-(4-( ((2-oxotetrahydrofuran-3-yl)thio)methyl)phenyl)-1,2,4,6a,6b,7,8,8a,11a,12,12a,12b-dodecahydro-8bH-naphtho[2',1':4,5]indeno[1,2-d][1,3]dioxole-8b-carboxylate]	0.78	suppressed inflammatory cytokines in aqueous humor	–	–	–
C[C@]12C=CC(=O)C=C1CC[C@H]1[C@@H]3C[C@H]4OC(c5ccc(CSC6CCOC6=O)cc5)O[C@@]4(C(=O)CO)[C@@]3(C)C[C@H](O)[C@@]12F (stereo partly drawn) [Compound 17, (6aS,6bR,7S,8aS,8bS,11aR,12aS,12bS)-6b-Fluoro-7-hydroxy-8b-(2-hydroxyacetyl)-6a,8a-dimethyl-10-(4-(((2-oxotetrahydrofuran-3-yl)thio)methyl)phenyl)-1,2,6a,6b,7,8,8a,8b,11a,12,12a,12b-do decahydro-4H-naphtho[2',1':4,5]indeno[1,2-d][1,3]dioxol-4-one]	–	suppressed inflammatory cytokines in aqueous humor	–	0.3	0.3
C[C@]12C=CC(=O)C=C1[C@@H](F)C[C@H]1[C@@H]3C[C@H]4OC(c5ccc(CSC6CCOC6=O)nc5)O[C@@]4(C(=O)CO)[C@@]3(C)C[C@H](O)[C@@]12F (stereo partly drawn) [Compound 46, (25,6aS,6bR,78,8a8,8bS,11aR,12a8,12b8S)-2,6b-Difluoro-7-hydroxy-8b-(2-hydroxyacetyl)-6a,8a-dimethyl-10-(6-(((2-oxotetrahydrofuran-3-yl)thio)methyl)pyridin-3-yl)-1,2,6a,6b,7,8,8a,8b,11a,12, 12a,12b-dodecahydro-4H-naphtho[2',1':4,5]indeno[1,2-d][1,3]dioxol-4-one]	0.23	suppressed inflammatory cytokines in aqueous humor	–	–	–
C[C@]12C=CC(=O)C=C1[C@@H](F)C[C@H]1[C@@H]3C[C@H]4OC(c5ccc(CSC6CCOC6=O)cc5)O[C@@]4(C(=O)SCF)[C@@]3(C)C[C@H](O)[C@@]12F (stereo partly drawn) [Compound 34, S-(Fluoromethyl) (2S,6aS,6bR,7S,8aS,8bS,11aR,12aS,12bS)-2,6b-difluoro-7-hydroxy-6a,8a-dimethyl-4-oxo-10-(4-( ((2-oxotetrahydrofuran-3-yl)thio)methyl)phenyl)-1,2,4,6a,6b,7,8,8a,11a,12,12a,12b-dodecahydro-8bH-naphtho[2',1':4,5]indeno[1,2-d][1,3]dioxole-8b-carbothioate]	0.1	suppressed inflammatory cytokines in aqueous humor	0.1	–	–
C[C@]12C=CC(=O)C=C1CC[C@H]1[C@@H]3C[C@H]4OC(c5ccc(CSC6CCOC6=O)nc5)O[C@@]4(C(=O)CO)[C@@]3(C)C[C@H](O)[C@@]12Cl (stereo partly drawn) [Compound 48, (6aS,6bR,7S,8aS,8bS,11aR,12aS,12bS)-6b-Chloro-7-hydroxy-8b-(2-hydroxyacetyl)-6a,8a-dimethyl-10-(6-(((2-oxotetrahydrofuran-3-yl)thio)methyl)pyridin-3-yl)-1,2,6a,6b,7,8,8a,8b,11a,12,12a,12 b-dodecahydro-4H-naphtho[2',1':4,5]indeno[1,2-d][1,3]dioxol-4-one]	0.37	suppressed inflammatory cytokines in aqueous humor	–	–	–
C[C@]12C=CC(=O)C=C1CC[C@H]1[C@@H]3C[C@H]4OC(c5ccc(CSC6CCOC6=O)cn5)O[C@@]4(C(=O)CO)[C@@]3(C)C[C@H](O)[C@@]12Cl (stereo partly drawn) [Compound 51, (6aS,6bR,7S,8aS,8bS,11aR,12aS,12bS)-6b-Chloro-7-hydroxy-8b-(2-hydroxyacetyl)-6a,8a-dimethyl-10-(5-(((2-oxotetrahydrofuran-3-yl)thio)methyl)pyridin-2-yl)-1,2,6a,6b,7,8,8a,8b,11a,12,12a,12 b-dodecahydro-4H-naphtho[2',1':4,5]indeno[1,2-d][1,3]dioxol-4-one]	0.82	suppressed inflammatory cytokines in aqueous humor	–	–	–
C[C@]12C=CC(=O)C=C1[C@@H](F)C[C@H]1[C@@H]3C[C@H]4OC(c5ccc(CSC6CCOC6=O)cc5)O[C@@]4(C(=O)OCF)[C@@]3(C)C[C@H](O)[C@@]12F (stereo partly drawn) [Compound 36, Fluoromethyl (2S,6aS,6bR,7S,8aS,8bS,11aR,12aS,12bS)-2,6b-difluoro-7-hydroxy-6a,8a-dimethyl-4-oxo-10-(4-( ((2-oxotetrahydrofuran-3-yl)thio)methyl)phenyl)-1,2,4,6a,6b,7,8,8a,11a,12,12a,12b-dodecahydro-8bH-naphtho[2',1':4,5]indeno[1,2-d][1,3]dioxole-8b-carboxylate]	0.12	suppressed inflammatory cytokines in aqueous humor	0.12	–	–
C[C@]12C=CC(=O)C=C1CC[C@H]1[C@@H]3C[C@H]4OC(c5ccc(CSC6COC(=O)C6)cc5Cl)O[C@@]4(C(=O)CO)[C@@]3(C)C[C@H](O)[C@@]12F (stereo partly drawn) [Compound 20, (6aS,6bR,7S,8aS,8bS,11aR,12aS,12bS)-10-(2-Chloro-4-(((5-oxotetrahydrofuran-3-yl)thio)methyl)phenyl)-6b-fluoro-7-hydroxy-8b-(2-hydroxyacetyl)-6a,8a-dimethyl-1,2,6a,6b,7,8,8a,8b,11a,12,12a, 12b-dodecahydro-4H-naphtho[2',1':4,5]indeno[1,2-d][1,3]dioxol-4-one]	–	suppressed inflammatory cytokines in aqueous humor	–	–	0.33
